{"source": "ChEMBL document CHEMBL1201862", "about": "“PubChem BioAssay data set” (2004)", "key": {"[1]": {"target": "Voltage-dependent T-type calcium channel subunit alpha-1H (Homo sapiens, UniProt O95180)", "sequence (O95180 whole entry)": "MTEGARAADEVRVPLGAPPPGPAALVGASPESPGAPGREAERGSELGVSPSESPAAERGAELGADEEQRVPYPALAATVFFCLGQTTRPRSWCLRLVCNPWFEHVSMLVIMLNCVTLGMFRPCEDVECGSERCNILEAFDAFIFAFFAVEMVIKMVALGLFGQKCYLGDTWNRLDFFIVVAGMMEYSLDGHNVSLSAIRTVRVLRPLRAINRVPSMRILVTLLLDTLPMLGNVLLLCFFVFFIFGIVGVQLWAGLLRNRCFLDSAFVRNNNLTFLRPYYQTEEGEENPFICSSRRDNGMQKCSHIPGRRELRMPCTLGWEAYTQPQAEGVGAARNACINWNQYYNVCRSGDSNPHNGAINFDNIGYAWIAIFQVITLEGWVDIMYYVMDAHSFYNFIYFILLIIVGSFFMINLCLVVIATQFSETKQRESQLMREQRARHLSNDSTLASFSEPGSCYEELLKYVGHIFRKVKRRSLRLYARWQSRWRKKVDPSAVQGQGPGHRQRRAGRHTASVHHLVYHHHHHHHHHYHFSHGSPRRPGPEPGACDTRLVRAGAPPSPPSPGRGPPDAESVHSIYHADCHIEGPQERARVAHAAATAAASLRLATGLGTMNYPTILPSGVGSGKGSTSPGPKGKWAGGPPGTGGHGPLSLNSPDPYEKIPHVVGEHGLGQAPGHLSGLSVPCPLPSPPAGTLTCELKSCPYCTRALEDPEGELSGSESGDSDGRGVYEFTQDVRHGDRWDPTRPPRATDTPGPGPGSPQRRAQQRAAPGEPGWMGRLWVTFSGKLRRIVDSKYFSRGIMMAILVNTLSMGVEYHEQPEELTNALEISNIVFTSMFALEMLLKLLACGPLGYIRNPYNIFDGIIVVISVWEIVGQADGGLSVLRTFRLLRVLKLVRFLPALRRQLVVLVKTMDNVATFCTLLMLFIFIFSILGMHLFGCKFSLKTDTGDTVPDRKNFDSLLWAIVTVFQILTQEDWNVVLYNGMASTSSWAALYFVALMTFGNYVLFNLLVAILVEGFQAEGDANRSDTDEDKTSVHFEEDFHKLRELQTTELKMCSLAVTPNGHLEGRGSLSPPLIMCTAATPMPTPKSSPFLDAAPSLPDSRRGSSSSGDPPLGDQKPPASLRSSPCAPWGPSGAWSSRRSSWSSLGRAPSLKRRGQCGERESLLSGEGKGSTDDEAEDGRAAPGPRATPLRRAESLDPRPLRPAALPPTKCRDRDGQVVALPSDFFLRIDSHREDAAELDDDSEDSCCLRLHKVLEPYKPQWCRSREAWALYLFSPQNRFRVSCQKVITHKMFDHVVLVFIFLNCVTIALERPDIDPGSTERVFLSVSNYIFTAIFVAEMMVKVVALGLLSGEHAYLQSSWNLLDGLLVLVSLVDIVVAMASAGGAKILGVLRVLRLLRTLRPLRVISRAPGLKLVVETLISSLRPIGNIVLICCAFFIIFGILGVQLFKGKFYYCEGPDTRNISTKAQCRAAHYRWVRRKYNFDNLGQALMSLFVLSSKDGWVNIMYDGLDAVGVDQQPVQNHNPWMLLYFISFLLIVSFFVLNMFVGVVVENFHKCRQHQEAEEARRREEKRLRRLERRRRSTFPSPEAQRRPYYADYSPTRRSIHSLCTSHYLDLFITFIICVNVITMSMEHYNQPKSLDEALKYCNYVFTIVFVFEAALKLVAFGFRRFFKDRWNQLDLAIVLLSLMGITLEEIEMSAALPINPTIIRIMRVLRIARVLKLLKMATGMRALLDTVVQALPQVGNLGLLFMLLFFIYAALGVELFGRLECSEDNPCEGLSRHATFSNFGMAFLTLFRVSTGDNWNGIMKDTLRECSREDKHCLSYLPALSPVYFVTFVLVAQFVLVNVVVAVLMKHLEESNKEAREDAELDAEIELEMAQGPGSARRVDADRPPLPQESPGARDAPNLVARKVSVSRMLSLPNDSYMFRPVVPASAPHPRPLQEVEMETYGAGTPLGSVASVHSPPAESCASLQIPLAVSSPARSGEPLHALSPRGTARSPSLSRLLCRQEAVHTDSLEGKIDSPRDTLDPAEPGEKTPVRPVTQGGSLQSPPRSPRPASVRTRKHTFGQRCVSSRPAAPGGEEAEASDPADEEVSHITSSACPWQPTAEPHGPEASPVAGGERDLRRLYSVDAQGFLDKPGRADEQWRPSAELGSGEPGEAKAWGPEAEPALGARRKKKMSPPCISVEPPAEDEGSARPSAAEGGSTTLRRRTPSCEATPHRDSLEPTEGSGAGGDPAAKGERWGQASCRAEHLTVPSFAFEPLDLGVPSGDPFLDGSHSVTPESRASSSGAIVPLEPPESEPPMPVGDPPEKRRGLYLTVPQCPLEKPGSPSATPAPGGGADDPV", "type": "functional"}, "cells [2]": {"test": "cells"}, "[3]": {"test": "viability of uninfected HEp-2 cells – cell-based, HTS, cytotoxicity control for RSV inhibitor project, dose response (AID 2410)", "type": "functional", "conditions": "human respiratory syncytial virus"}, "[4]": {"target": "Eukaryotic translation initiation factor 4E (Mus musculus, UniProt P63073)", "test": "blockers of eIF4G binding by eIF4E – biochemical, TR-FRET, dose response (AID 855);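 also: potency for disrupting eIF4E binding to eIF4GI seen as loss of FRET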", "type": "functional"}, "[5]": {"test": "HIV-1 Vif–A3G interaction blockers – biochemical, TR-FRET, GST-Vif 1-94, biotin-A3G peptide, dose response retest, primary screen (AID 1117319);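 also: TR-FRET signal of purified GST-Vif binding a biotinylated A3G peptide; inhibitors lower the FRET signal by blocking Vif and A3G binding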", "type": "functional"}, "[6]": {"target": "T1, E3 ubiquitin-protein ligase XIAP (Homo sapiens, UniProt P98170)", "T1 sequence (P98170 whole entry)": "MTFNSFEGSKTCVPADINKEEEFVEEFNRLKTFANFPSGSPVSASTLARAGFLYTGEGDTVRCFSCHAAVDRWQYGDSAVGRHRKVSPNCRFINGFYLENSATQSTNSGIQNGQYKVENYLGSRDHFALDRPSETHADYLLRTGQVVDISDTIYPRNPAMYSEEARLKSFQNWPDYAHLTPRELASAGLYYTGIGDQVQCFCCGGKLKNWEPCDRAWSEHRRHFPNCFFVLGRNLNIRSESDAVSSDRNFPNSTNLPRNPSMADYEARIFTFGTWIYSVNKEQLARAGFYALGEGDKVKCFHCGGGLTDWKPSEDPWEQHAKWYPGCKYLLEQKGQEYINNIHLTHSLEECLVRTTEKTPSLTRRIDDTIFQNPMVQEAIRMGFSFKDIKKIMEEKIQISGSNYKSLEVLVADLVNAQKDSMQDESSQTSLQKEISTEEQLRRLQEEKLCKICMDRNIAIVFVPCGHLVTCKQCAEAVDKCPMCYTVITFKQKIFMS", "test": "small molecules displacing peptide from XIAP – biochemical, IAP family, fluorescence polarization (AID 1018)", "type": "functional"}, "[7]": {"target": "T1, E3 ubiquitin-protein ligase XIAP", "test": "Counter Screen using XIAP-Bir3 for Chemical Antagonists of Bir1/2 domains of IAP-family anti-apoptotic proteins. [Related pubchem assays (depositor defined):AID1018, AID1449, AID1514, AID1638, AID1749, AID1750, AID488957, AID488963]"}, "[8]": {"test": "viability inhibitors of stage V gametocytes – luminescence, dose response (AID 1117278);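 also: gametocytes exposed to compound for 24 hours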", "type": "functional, cell-based"}, "[9]": {"test": "viability loss in human Jurkat cells – cell-based, luminescence, cytotoxicity control for P. falciparum gametocyte viability project, dose response (AID 1117277);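 also: potency reflects loss of cellular ATP meaning fewer viable cells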", "type": "functional"}, "Protein Tat": {"target": "T2, Protein Tat (Human immunodeficiency virus type 1 group M subtype B (isolate HXB2)(HIV-1), UniProt P04608)", "T2 sequence (P04608 whole entry)": "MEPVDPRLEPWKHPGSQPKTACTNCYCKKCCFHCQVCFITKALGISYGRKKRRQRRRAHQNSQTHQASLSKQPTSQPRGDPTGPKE", "type": "functional"}, "cells [10]": {"test": "cells", "type": "functional"}, "[11]": {"test": "THP-1 cell cytotoxicity, dose response, cytotoxicity control for non-replicating M. tuberculosis project (AID 489025)", "type": "functional"}, "[12]": {"test": "HepG2 cell cytotoxicity, dose response, cytotoxicity control for non-replicating M. tuberculosis project (AID 489018)", "type": "functional", "conditions": "Mycobacterium tuberculosis"}, "[13]": {"test": "microbe, parasite or virus in culture", "type": "functional", "conditions": "Mycobacterium tuberculosis"}, "[14]": {"test": "Vero E6 cell cytotoxicity, dose response, cytotoxicity control for non-replicating M. tuberculosis project, secondary assay (AID 492998)", "type": "functional, VeroE6", "conditions": "Vero C1008"}, "Vero": {"test_system": "Vero", "test": "cells", "type": "functional", "conditions": "Chlorocebus sabaeus"}, "[15]": {"target": "DNA dC->dU-editing enzyme APOBEC-3G (Homo sapiens, UniProt Q9HC16)", "sequence (Q9HC16 whole entry)": "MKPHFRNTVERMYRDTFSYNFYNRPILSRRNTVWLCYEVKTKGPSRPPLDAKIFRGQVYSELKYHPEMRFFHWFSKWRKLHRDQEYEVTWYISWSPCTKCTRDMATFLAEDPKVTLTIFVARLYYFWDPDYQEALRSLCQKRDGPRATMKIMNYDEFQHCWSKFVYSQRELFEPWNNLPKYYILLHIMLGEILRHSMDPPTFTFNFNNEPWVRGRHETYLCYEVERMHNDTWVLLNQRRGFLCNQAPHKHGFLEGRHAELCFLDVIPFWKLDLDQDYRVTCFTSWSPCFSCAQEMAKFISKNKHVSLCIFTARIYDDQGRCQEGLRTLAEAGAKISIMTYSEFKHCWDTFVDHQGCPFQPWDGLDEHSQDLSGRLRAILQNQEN", "type": "functional"}, "[16]": {"target": "T3, Zinc finger protein mex-5 (Caenorhabditis elegans, UniProt Q9XUB2)", "T3 sequence (Q9XUB2 whole entry)": "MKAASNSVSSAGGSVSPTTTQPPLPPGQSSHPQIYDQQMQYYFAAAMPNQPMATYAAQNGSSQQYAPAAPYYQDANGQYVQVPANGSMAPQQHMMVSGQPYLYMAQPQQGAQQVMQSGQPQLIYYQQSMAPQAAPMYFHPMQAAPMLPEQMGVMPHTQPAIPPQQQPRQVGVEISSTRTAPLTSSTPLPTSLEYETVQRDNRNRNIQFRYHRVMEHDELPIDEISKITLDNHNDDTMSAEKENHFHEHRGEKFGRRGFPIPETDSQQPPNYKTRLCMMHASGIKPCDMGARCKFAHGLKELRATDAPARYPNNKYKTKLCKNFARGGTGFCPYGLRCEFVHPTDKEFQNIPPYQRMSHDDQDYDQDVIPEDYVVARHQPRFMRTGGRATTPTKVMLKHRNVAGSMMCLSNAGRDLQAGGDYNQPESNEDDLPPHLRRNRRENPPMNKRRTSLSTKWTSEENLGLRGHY", "test": "potency of MEX-5 RNA-binding blockers – biochemical, C. elegans, fluorescence polarization, dose response (AID 1960)"}, "[17]": {"target": "T4, RNA-binding protein pos-1 (Caenorhabditis elegans, UniProt G5EF15)", "T4 sequence (G5EF15 whole entry)": "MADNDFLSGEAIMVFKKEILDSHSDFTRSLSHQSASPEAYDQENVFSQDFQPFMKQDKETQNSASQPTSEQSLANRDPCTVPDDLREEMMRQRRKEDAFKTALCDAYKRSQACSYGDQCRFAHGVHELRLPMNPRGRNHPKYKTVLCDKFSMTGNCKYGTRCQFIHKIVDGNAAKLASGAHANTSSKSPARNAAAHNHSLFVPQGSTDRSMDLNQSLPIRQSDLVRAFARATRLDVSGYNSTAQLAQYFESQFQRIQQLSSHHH", "test": "disruptors of C. elegans POS-1 RNA interaction – biochemical, fluorescence polarization, dose response (AID 1964);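 also: purified POS-1 fused to maltose binding protein made in E. coli; potency of compounds blocking POS-1 binding to fluorescent RNA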"}, "Large T antigen": {"target": "Large T antigen (Simian virus 40, UniProt P03070)", "type": "functional, Betapolyomavirus macacae"}, "[18]": {"target": "DNA dC->dU-editing enzyme APOBEC-3A (Homo sapiens, UniProt P31941)", "sequence (P31941 whole entry)": "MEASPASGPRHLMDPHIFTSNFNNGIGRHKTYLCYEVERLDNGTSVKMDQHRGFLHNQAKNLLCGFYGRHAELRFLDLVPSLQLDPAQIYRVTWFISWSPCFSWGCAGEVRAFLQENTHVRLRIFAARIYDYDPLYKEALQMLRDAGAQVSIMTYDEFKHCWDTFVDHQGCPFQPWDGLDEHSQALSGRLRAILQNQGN", "test": "Dose Response confirmation of small molecule APOBEC3A DNA Deaminase Inhibitors via a fluorescence-based single-stranded DNA deaminase assay. [Related pubchem assays (depositor defined):AID493011, AID493024]", "type": "functional"}, "[19]": {"target": "T5, Carboxy-terminal domain RNA polymerase II polypeptide A small phosphatase 1 (Homo sapiens, UniProt Q9GZU7)", "T5 sequence (Q9GZU7 whole entry)": "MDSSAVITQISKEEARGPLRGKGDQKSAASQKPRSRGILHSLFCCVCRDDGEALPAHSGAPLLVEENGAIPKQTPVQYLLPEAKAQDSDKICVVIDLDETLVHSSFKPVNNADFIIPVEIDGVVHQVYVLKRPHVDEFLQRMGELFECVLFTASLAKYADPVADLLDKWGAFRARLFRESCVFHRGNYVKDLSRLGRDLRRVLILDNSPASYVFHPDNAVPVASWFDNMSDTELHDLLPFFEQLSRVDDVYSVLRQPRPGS", "test": "CTDSP1 inhibitors, concentration-response, biochemical, absorbance readout, ultra-high-throughput screen actives (AID 540297)", "type": "functional"}, "[20]": {"target": "SWI/SNF-related matrix-associated actin-dependent regulator of chromatin subfamily A member 2 (Homo sapiens, UniProt P51531)", "sequence (P51531 whole entry)": "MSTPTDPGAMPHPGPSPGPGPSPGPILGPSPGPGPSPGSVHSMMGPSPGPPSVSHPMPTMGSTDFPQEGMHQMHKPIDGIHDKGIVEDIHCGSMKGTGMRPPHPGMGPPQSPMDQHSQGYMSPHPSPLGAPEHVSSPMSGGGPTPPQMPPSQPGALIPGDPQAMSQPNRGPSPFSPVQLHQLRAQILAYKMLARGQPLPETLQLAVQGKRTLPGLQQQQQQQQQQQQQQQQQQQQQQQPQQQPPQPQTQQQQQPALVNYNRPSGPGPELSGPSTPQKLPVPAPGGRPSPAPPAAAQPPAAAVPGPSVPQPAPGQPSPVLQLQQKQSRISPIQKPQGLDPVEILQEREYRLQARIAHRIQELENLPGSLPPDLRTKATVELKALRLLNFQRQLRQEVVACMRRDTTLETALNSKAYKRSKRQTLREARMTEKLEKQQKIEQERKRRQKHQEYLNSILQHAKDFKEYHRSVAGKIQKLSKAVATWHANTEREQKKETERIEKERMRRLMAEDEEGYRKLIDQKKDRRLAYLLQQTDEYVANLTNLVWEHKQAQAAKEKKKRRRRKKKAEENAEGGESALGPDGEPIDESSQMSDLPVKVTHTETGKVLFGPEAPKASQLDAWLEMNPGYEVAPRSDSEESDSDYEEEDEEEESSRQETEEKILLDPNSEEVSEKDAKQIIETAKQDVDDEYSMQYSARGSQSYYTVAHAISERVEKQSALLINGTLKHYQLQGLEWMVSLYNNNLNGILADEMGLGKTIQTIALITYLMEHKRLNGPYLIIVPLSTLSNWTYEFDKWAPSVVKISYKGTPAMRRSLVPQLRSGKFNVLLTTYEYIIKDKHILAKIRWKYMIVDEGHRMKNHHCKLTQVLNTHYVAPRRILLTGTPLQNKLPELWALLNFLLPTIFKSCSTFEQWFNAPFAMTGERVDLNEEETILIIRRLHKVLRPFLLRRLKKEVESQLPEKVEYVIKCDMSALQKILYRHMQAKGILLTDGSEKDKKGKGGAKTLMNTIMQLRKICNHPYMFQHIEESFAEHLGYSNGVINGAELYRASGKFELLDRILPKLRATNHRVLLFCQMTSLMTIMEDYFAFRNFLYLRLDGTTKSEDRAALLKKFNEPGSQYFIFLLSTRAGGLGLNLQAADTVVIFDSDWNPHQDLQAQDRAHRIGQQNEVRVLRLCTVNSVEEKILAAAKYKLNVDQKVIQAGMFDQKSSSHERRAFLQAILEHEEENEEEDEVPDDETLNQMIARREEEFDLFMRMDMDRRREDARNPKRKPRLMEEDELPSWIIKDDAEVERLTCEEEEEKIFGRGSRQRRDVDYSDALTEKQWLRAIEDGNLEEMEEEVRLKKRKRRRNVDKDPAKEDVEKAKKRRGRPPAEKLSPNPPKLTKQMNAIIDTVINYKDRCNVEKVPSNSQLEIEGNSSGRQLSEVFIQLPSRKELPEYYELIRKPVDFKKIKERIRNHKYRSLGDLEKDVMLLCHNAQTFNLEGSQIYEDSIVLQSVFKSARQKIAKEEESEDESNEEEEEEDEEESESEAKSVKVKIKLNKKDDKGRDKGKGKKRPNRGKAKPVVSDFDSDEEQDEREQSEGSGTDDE", "test": "Luminescence-based cell-based high throughput dose response assay to identify activators of the function of SWI/SNF related, matrix associated, actin dependent regulator of chromatin, subfamily a, member 2 (SMARCA2, BRM).", "type": "functional"}, "[21]": {"test": "reduction of Shn3 3'UTR-driven luciferase in osteoblasts – cell-based, Clone20 osteoblasts, firefly luciferase, cherry-picked, dose response (AID 624132)", "type": "functional"}, "[22]": {"test": "non-specific 3'UTR reporter inhibition in Clone20-Shn3RL – cell-based, Renilla luciferase, cherry-picked, counter-screen for Shn3 inhibitor project, dose response (AID 624133)", "type": "functional"}, "[23]": {"test": "Counterscreen for activators of the function of SWI/SNF related, matrix associated, actin dependent regulator of chromatin, subfamily a, member 2 (SMARCA2, BRM): Luminescence-based cell-based high throughput dose response assay to identify non-selective compounds using the VP16 reporter assay.", "type": "functional"}, "[24]": {"target": "T6, Fructose-bisphosphate aldolase (Mycobacterium tuberculosis, UniProt P9WQA3)", "T6 sequence (P9WQA3 whole entry)": "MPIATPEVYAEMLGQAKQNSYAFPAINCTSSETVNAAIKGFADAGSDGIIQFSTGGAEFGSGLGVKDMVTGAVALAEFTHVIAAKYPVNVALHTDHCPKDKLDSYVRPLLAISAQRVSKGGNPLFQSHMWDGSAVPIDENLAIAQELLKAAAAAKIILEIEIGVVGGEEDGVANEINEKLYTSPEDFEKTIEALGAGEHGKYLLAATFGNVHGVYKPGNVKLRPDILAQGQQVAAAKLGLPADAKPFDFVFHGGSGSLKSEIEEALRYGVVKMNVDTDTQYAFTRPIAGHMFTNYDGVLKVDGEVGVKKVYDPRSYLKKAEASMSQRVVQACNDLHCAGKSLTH", "test": "Fluorescence-based biochemical high throughput dose response assay for inhibitors of the fructose-bisphosphate aldolase (FBA) of M. tuberculosis.", "type": "functional"}}, "note": "Calls of active or inactive are those of the source.", "data": [{"smiles": "O=C(CSCC(=O)N1CCN(c2ccccc2)CC1)Nc1nc(-c2ccc(Cl)s2)cs1", "values": [{"measurement": "EC50", "setting": "[1]", "value": "4.28 µM (active)"}]}, {"smiles": "CSc1nnc(Cn2c(=O)sc3ccccc32)n1-c1cccc(Cl)c1", "values": [{"measurement": "IC50", "setting": "cells [2]", "value": "8.48 µM (active)"}, {"measurement": "CC50", "setting": "[3]", "value": "> 50 µM (active)"}]}, {"smiles": "COc1cc(C(=O)NCc2ccc(C(=O)NCC(OC)OC)cc2)cc(OC)c1OC", "values": [{"measurement": "IC50", "setting": "[4]", "value": "50 µM (inactive)"}]}, {"smiles": "COCCNC(C)C(=O)C12CC3CC(CC(C3)C1)C2", "note": "(centres undefined)", "values": [{"measurement": "IC50", "setting": "[5]", "value": "> 100 µM (active)"}]}, {"smiles": "O=C(NCc1cccs1)c1noc2c1CCCCC2", "values": [{"measurement": "IC50", "setting": "[6]", "value": "> 100 µM (not active)"}, {"measurement": "IC50", "setting": "[7]", "value": "> 100 µM (inactive)"}]}, {"smiles": "COC(=O)c1sc(NC(=O)c2ccc(Cn3cc(Cl)cn3)o2)c(C#N)c1C", "values": [{"measurement": "IC50", "setting": "[5]", "value": "> 100 µM (active)"}]}, {"smiles": "Cc1cc(C)n(Cc2ccc(Cl)nc2)n1", "values": [{"measurement": "IC50", "setting": "[8]", "value": "> 109 µM (inactive)"}, {"measurement": "IC50", "setting": "[9]", "value": "> 83.3 µM (inactive)"}]}, {"smiles": "CC1Cc2ccccc2N1C(=O)c1cc2sccc2n1Cc1ccc(F)cc1", "note": "(centres undefined)", "values": [{"measurement": "EC50", "setting": "[1]", "value": "5.86 µM (active)"}]}, {"smiles": "O=C(c1ccc(=O)oc1)N1CCCc2ccccc21", "values": [{"measurement": "IC50", "setting": "Protein Tat", "value": "5.02 µM (inconclusive)"}]}, {"smiles": "Cc1cccc(/C=C/c2onc(C)c2[N+](=O)[O-])n1", "values": [{"measurement": "IC50", "setting": "cells [10]", "value": "8.06 µM (active)"}, {"measurement": "CC50", "setting": "[11]", "value": "7.76 µM (active)"}, {"measurement": "CC50", "setting": "[12]", "value": "> 20 µM (active)"}, {"measurement": "CC50", "setting": "[13]", "value": "14.3 µM (active)"}, {"measurement": "CC50", "setting": "[14]", "value": "6.87 µM (active)"}, {"measurement": "CC50", "setting": "Vero", "value": "13.8 µM (active)"}]}, {"smiles": "N#Cc1ccccc1CN1C(=O)S/C(=C/c2cccn2-c2cccc(C(=O)O)c2)C1=O", "values": [{"measurement": "IC50", "setting": "Protein Tat", "value": "> 100 µM (active)"}, {"measurement": "IC50", "setting": "[15]", "value": "37 µM (active)"}, {"measurement": "EC50", "setting": "[16]", "value": "> 300 µM (not active)"}, {"measurement": "EC50", "setting": "[17]", "value": "> 300 µM (not active)"}, {"measurement": "IC50", "setting": "Large T antigen", "value": "> 100 µM (active)"}, {"measurement": "IC50", "setting": "[18]", "value": "14.9 µM (active)"}, {"measurement": "IC50", "setting": "[19]", "value": "5.19 µM (active)"}]}, {"smiles": "Cc1cc(C)nc(N2CCCC(C(=O)Nc3cc(F)ccc3C)C2)n1", "note": "(centres undefined)", "values": [{"measurement": "IC50", "setting": "[6]", "value": "> 100 µM (not active)"}, {"measurement": "IC50", "setting": "[7]", "value": "> 100 µM (inactive)"}]}, {"smiles": "COCCNC(=O)c1ccc(CS(=O)(=O)c2c(Cl)cccc2Cl)o1", "values": [{"measurement": "IC50", "setting": "Protein Tat", "value": "> 100 µM (active)"}]}, {"smiles": "CS(=O)(=O)c1ccc(C(=O)OCC(=O)N2CCOCC2)cc1[N+](=O)[O-]", "values": [{"measurement": "EC50", "setting": "[20]", "value": "> 91.2 µM (inactive)"}, {"measurement": "AC50", "setting": "[21]", "value": "17.5 µM (active)"}, {"measurement": "AC50", "setting": "[22]", "value": "27.9 µM (active)"}, {"measurement": "EC50", "setting": "[23]", "value": "> 91.2 µM (inactive)"}]}, {"smiles": "CCCC(c1nnnn1CC(=O)OCC)N(Cc1cc2c(C)cc(C)cc2nc1O)C1CCCC1", "note": "(centres undefined)", "values": [{"measurement": "IC50", "setting": "cells [2]", "value": "6.29 µM (active)"}]}, {"smiles": "N=c1c(C(=O)NC2CCCCC2)cc2c(=O)n3ccccc3nc2n1Cc1ccco1", "values": [{"measurement": "IC50", "setting": "[24]", "value": "3.71 µM (active)"}]}]}
